According to PubChem BioAssay AID256 (DTP/NCI, 2004):
Values joined by “and” are separate entries in the source; they are usually repeats but may differ in a detail not shown here. Equal entries are not always repeated. Inconclusive results and toxic doses are left out.

Tested on: CD2F1 mice, L1210 leukemia ip, survival T/C
Assay: NCI In Vivo Anticancer Drug Screen. Data for tumor model L1210 Leukemia (intraperitoneal) in CD2F1 (CDF1) mice
Details: higher = longer survival
Method in brief: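 Ratio T/C, where T is the treated-group value and C the vehicle-dosed control value, from mice implanted with a transplantable tumor.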

[1] = endpoint: mean survival time, dose: 50.0 mg/kg/injection, schedule: Q01DX009 (ip), vehicle: Klucel (hydroxypropylcellulose) (HPC)
[2] = endpoint: mean survival time, dose: 100.0 mg/kg/injection, schedule: Q01DX009 (ip), vehicle: Klucel (hydroxypropylcellulose) (HPC)
[3] = endpoint: mean survival time, dose: 200.0 mg/kg/injection, schedule: Q01DX009 (ip), vehicle: Klucel (hydroxypropylcellulose) (HPC)
[4] = endpoint: mean survival time, dose: 100.0 mg/kg/injection, schedule: Q04DX002 (ip), vehicle: saline
[5] = endpoint: mean survival time, dose: 100.0 mg/kg/injection, schedule: Q01DX009 (ip), vehicle: saline with Tween-80
[6] = endpoint: mean survival time, dose: 200.0 mg/kg/injection, schedule: Q01DX009 (ip), vehicle: saline with Tween-80
[7] = endpoint: mean survival time, dose: 6.25 mg/kg/injection, schedule: Q04DX003 (ip), vehicle: saline with Tween-80
[8] = endpoint: mean survival time, dose: 12.5 mg/kg/injection, schedule: Q04DX003 (ip), vehicle: saline with Tween-80
[9] = endpoint: mean survival time, dose: 100.0 mg/kg/injection, schedule: Q04DX003 (ip), vehicle: saline
[10] = endpoint: mean survival time, dose: 200.0 mg/kg/injection, schedule: Q04DX003 (ip), vehicle: saline
[11] = endpoint: mean survival time, dose: 400.0 mg/kg/injection, schedule: Q04DX003 (ip), vehicle: saline
[12] = endpoint: mean survival time, dose: 100.0 mg/kg/injection, schedule: Q04DX003 (ip), vehicle: saline with Tween-80
[13] = endpoint: mean survival time, dose: 200.0 mg/kg/injection, schedule: Q04DX003 (ip), vehicle: saline with Tween-80
[14] = endpoint: mean survival time, dose: 400.0 mg/kg/injection, schedule: Q04DX003 (ip), vehicle: saline with Tween-80
[15] = endpoint: mean survival time, dose: 400.0 mg/kg/injection, schedule: Q01DX009 (ip), vehicle: saline with Tween-80

CCOC(=O)C1CC(c2ccccc2)=NN1c1ccccc1 (configuration not stated)
T/C (endpoint: mean survival time, dose: 12.5 mg/kg/injection, schedule: Q01DX009 (ip), vehicle: Klucel (hydroxypropylcellulose) (HPC)): 95 % of control | T/C (endpoint: mean survival time, dose: 25.0 mg/kg/injection, schedule: Q01DX009 (ip), vehicle: Klucel (hydroxypropylcellulose) (HPC)): 101 % of control | T/C [1]: 102 % of control | T/C [2]: 101 % of control | T/C [3]: 95 % of control | T/C (endpoint: mean survival time, dose: 400.0 mg/kg/injection, schedule: Q01DX009 (ip), vehicle: Klucel (hydroxypropylcellulose) (HPC)): 98 % of control

CC1(C)CC(=O)C(C)(C)C(=O)C1
T/C (endpoint: mean survival time, dose: 100.0 mg/kg/injection, schedule: Q01DX001 (ip), vehicle: saline): 100 % of control

CC(SC(=N)N)C(=N)N (configuration not stated)
T/C (endpoint: mean survival time, dose: 25.0 mg/kg/injection, schedule: Q04DX002 (ip), vehicle: saline): 97 % of control | T/C (endpoint: mean survival time, dose: 50.0 mg/kg/injection, schedule: Q04DX002 (ip), vehicle: saline): 90 % of control | T/C [4]: 105 % of control

O=C1/C(=C\c2ccc(Cl)cc2)SC(=S)N1/N=C/c1ccc(Cl)cc1
T/C (endpoint: mean survival time, dose: 25.0 mg/kg/injection, schedule: Q01DX001 (ip), vehicle: saline with Tween-80): 97 % of control | T/C (endpoint: mean survival time, dose: 50.0 mg/kg/injection, schedule: Q01DX001 (ip), vehicle: saline with Tween-80): 94 % of control | T/C (endpoint: mean survival time, dose: 100.0 mg/kg/injection, schedule: Q01DX001 (ip), vehicle: saline with Tween-80): 90 % of control | T/C (endpoint: mean survival time, dose: 200.0 mg/kg/injection, schedule: Q01DX001 (ip), vehicle: saline with Tween-80): 87 % of control

CC(=O)CC(=O)Nc1ccc(N=Nc2ccccc2)cc1
T/C [5]: 101 % of control | T/C [6]: 101 % of control

CC([NH-])CC(C)[NH-].[I][Pt+2][I] (configuration not stated)
T/C [7]: 113 % of control | T/C [8]: 121 % of control

CCCCCCCCCCCCCCCC(=O)N(C/C=C/CN(CCCN(C)C)C(=O)CCCCCCCCCCCCCCC)CCCN(C)C
T/C (endpoint: mean survival time, dose: 6.25 mg/kg/injection, schedule: Q01DX009 (ip), vehicle: saline with Tween-80): 92 % of control | T/C [7]: 95 % of control | T/C (endpoint: mean survival time, dose: 12.5 mg/kg/injection, schedule: Q01DX009 (ip), vehicle: saline with Tween-80): 93 % of control | T/C [8]: 93 % of control | T/C (endpoint: mean survival time, dose: 25.0 mg/kg/injection, schedule: Q01DX009 (ip), vehicle: saline with Tween-80): 94 % of control | T/C (endpoint: mean survival time, dose: 25.0 mg/kg/injection, schedule: Q04DX003 (ip), vehicle: saline with Tween-80): 98 % of control

CCCC[N+](=O)[O-]
T/C [9]: 98 % of control | T/C [10]: 100 % of control | T/C [11]: 102 % of control

O=c1[nH]c(-c2ccccc2)nc(Cc2ccccc2)c1CCO
T/C [12]: 89 % of control | T/C [13]: 89 % of control | T/C [14]: 91 % of control

O=P1(Cc2ccccc2)C(c2ccccc2)=C(O)C2CCCC21 (configuration not stated)
T/C [1]: 97 % of control | T/C [2]: 97 % of control | T/C [3]: 89 % of control

O=c1[nH]cccc1O
T/C (endpoint: median survival time, dose: 50.0 mg/kg/injection, schedule: Q01DX009 (ip), vehicle: saline with Tween-80): 103 % of control and 104 % of control and 108 % of control | T/C (endpoint: median survival time, dose: 62.5 mg/kg/injection, schedule: Q01DX009 (ip), vehicle: saline with Tween-80): 102 % of control | T/C (endpoint: median survival time, dose: 66.7 mg/kg/injection, schedule: Q03HX027 (ip), vehicle: saline with Tween-80): 96 % of control | T/C (endpoint: median survival time, dose: 125.0 mg/kg/injection, schedule: Q01DX009 (ip), vehicle: saline with Tween-80): 113 % of control | T/C (endpoint: median survival time, dose: 133.0 mg/kg/injection, schedule: Q03HX027 (ip), vehicle: saline with Tween-80): 103 % of control | T/C (endpoint: median survival time, dose: 250.0 mg/kg/injection, schedule: Q01DX009 (ip), vehicle: saline with Tween-80): 116 % of control | T/C (endpoint: median survival time, dose: 266.0 mg/kg/injection, schedule: Q03HX027 (ip), vehicle: saline with Tween-80): 155 % of control

O=C(c1ccccc1)C(O)c1ccccc1 (configuration not stated)
T/C [12]: 90 % of control | T/C [13]: 96 % of control | T/C [14]: 97 % of control

COC(=O)C(C(=O)OC)C(Br)(OC(C)=O)OC(C)=O
T/C [5]: 97 % of control | T/C [6]: 104 % of control | T/C [15]: 109 % of control

CS(=O)(=O)[O-].CS(=O)(=O)[O-].NC1CCCCC1N.[Pt+4] (configuration not stated)
T/C (endpoint: mean survival time, dose: 0.16 mg/kg/injection, schedule: Q04DX003 (ip), vehicle: other): 124 % of control | T/C (endpoint: mean survival time, dose: 0.62 mg/kg/injection, schedule: Q01DX009 (ip), vehicle: dextrose): 119 % of control | T/C (endpoint: mean survival time, dose: 5.0 mg/kg/injection, schedule: Q01DX009 (ip), vehicle: dextrose): 93 % of control

Cc1cccc2c(=O)c3ccccc3oc12
T/C [9]: 102 % of control | T/C [10]: 102 % of control | T/C [11]: 104 % of control

CC(C)NC(=O)C1C2CCC(C2)C1C(=O)NC(C)C (configuration not stated)
T/C [9]: 98 % of control | T/C [10]: 111 % of control | T/C [11]: 98 % of control

CCN(CC)CCCC(C)Nc1ccnc2cc(Cl)ccc12 (configuration not stated)
T/C [4]: 91 % of control

O=C(CCCCC(=O)N/N=C/c1ccco1)N/N=C/c1ccco1
T/C [5]: 92 % of control | T/C [6]: 88 % of control | T/C [15]: 93 % of control

CC(=O)c1ccc([NH-])c([NH-])c1.[Cl][Pt+2][Cl]
T/C (endpoint: mean survival time, dose: 2.5 mg/kg/injection, schedule: Q01DX009 (ip), vehicle: distilled water + Tween-80): 102 % of control | T/C (endpoint: mean survival time, dose: 5.0 mg/kg/injection, schedule: Q01DX009 (ip), vehicle: distilled water + Tween-80): 104 % of control | T/C (endpoint: mean survival time, dose: 10.0 mg/kg/injection, schedule: Q01DX009 (ip), vehicle: distilled water + Tween-80): 109 % of control and 112 % of control | T/C (endpoint: mean survival time, dose: 20.0 mg/kg/injection, schedule: Q01DX009 (ip), vehicle: distilled water + Tween-80): 114 % of control

CS/C([S-])=N/N=C\c1ccccn1.CS/C([S-])=N/N=C\c1ccccn1.[Ni+2]
T/C [12]: 97 % of control | T/C [13]: 96 % of control | T/C [14]: 96 % of control

Nc1ncc2c(n1)SCC2
T/C (endpoint: mean survival time, dose: 200.0 mg/kg/injection, schedule: Q01DX001 (ip), vehicle: saline): 119 % of control
